{
  "source": "patent US20260183306A1",
  "about": "“Methods for Treating Respiratory Diseases Characterized by Mucus Hypersecretion” (The Board of Trustees of the Leland Stanford Junior …, priority 2022, published 2026)",
  "test_system": "primary human nasal epithelial cells (HNECs)",
  "experiment": "Multiciliated cell (MCC) formation in HNEC air-liquid interface (ALI) cultures",
  "type": "cell-based",
  "conditions": "for multiciliated cell formation by apical versus basal application: ALI+0 to +21d from either the apical or basal surface; for ratio MCC number/total luminal cells: labeled at ALI+21 d, vs untreated, p<0.01 by ANOVA; for number of multiciliated cells, apical only treatment of submerged cultures: vs untreated submerged cells; for multiciliated cell numbers, treatment during differentiation: differentiation only (ALI+0 to +21d) and continuous (preALI+ALI) treatments; for multiciliated cell formation in mature cultures: mature (ALI+30d) cultures treated one (ALI+30 to +37d) or two weeks (ALI+30 to +44d); for multiciliated cell formation, treatment during proliferation only: pre-ALI only (ALI-5 to -1d); for multiciliated cell formation, treatment during proliferation only / multiciliated cell formation at the low concentration: labeled ALI+21d; for effect on Notch signaling and differentiation towards MCCs: administered in the nanomolar range to human nasal epithelial cells; for toxicity / disruption of epithelial structure at high concentration: micromolar doses (10 μM for LY450139); for multiciliated cell formation at the low concentration: low dose (based on IC50 for Notch inhibition)",
  "description": "Air-Liquid Interface (ALI) cultures were prepared as described in Vladar E K, Nayak J V, Milla C E, Axelrod J D. Airway epithelial homeostasis and planar cell polarity signaling depend on multiciliated cell differentiation. JCI Insight. 2016; 1(13); e88027. Human nasal epithelial cells (HNECs) were generated from human sinonasal epithelial brushings or from tissue obtained from patients undergoing endoscopic sinus surgery at Stanford Hospital and cultured as described in Vladar et al.\nCultures were treated with varying doses of semagacestat. DAFT (Abcam) was used ([…]) as a positive cone ml for GSI activity. Cultures were labeled at ALI+21 d with anti-acetylated α-tubulin (green) and ECAD (red) antibodies to mark cilia and epithelial junctions. […] The ratio was defined as MCC number/total luminal cells. Counting was done on one representative image from 5 culture replicates from a single donor.\nPrimary human airway epithelial cells were treated with DAPT and LY45139: i) during proliferation only (ALI-5 to -Id), ii) during differentiation only (ALI+0 to +21d) or iii) continuously during the entire culture duration, followed by labeling at ALI+21d with anti-acetylated α-Tubulin (green) and ECAD (red) antibodies.\nMature (ALI+30d) primary human airway epithelial cells were treated with DAFT and semagacestat for one (ALI+30 to +37d) or two weeks (ALI+30 to +44d), then labeled with anti-acetylated α-Tubulin (green) and ECAD (red) antibodies.\nPrimary human airway epithelial cells were treated with DAFT and LY45139 during differentiation only (ALI+0 to +21d) from either the apical or basal surface, then labeled at ALI+21d with anti-acetylated α-Tubulin (green) and ECAD (red) antibodies. […] Apical treatment eliminates the air-liquid interface, which results in the poor epithelial structure and multiciliated cell differentiation in the untreated cultures, which is partially rescued by GSI treatment.\nWhile this effect may be beneficial as a therapeutic, DAPT is not suitable for human use. It was sought to identify GSIs for potential therapeutic application among small molecules previously used in clinical trials that were developed to have acceptable drug-like properties. […] Healthy human nasal epithelial cell (HNEC) primary cultures were grown at air-liquid interface (ALI) in homemade culture medium to support the consistent differentiation of multiciliated cells as approximately 45-55% of the luminal cells, similar to the in vivo airways (24) (FIG. 35A, 40A). The use of homemade culture medium is important, as cultures grown in commercially available Pneumacult medium often contain 85-95% multiciliated cells at the luminal surface (FIG. S4A). HNECs were treated with a low and high dose (based on IC50 for Notch inhibition, Selleckchem) of each compound during the entire 21 days of ALI differentiation (ALI+0 to 21d). The fraction of mature multiciliated cells was quantitated using wholemount ac. α-Tubulin antibody (marks ciliary axonemes) labeling. […] DMSO control treatment had no effect on multiciliated cell number (FIG. 40A).\nHNEC primary culture comprises an initial proliferative phase when basal stem cells establish the epithelial layer under submerged culture conditions (preALI), followed by differentiation induced, in part, by lifting to ALI (30). Thus, HNECs can be used to test GSI response in both regenerative and homeostatic settings. Notch signaling between luminal cells controls epithelial cell fate, but it is also active in basal cells and regulates their differentiation and survival (14,18,31). Thus, it was asked if the GSIs LY450139 or DAFT during the proliferative preALI phase only or during the entire culture duration (proliferative+differentiation; preALI+ALI) can induce multiciliated cell formation and if GSI treatment during stem cell proliferation has detrimental effects. PreALI, GSIs was added to both the apical and basal media, and during ALI, cultures were only treated basally. […]",
  "key": {"[1]": {"conditions": "ALI+0 to +21d, listed as LY45139"}, "[2]": {"conditions": "ALI+0 to +21d, listed as LY450139"}, "[3]": {"conditions": "treated during differentiation ALI+0 to +21d"}},
  "note": "“Also recorded” adds a separate entry of the source.",
  "data": [
    {"smiles": "C[C@H](NC(=O)Cc1cc(F)cc(F)c1)C(=O)NC(C(=O)OC(C)(C)C)c1ccccc1", "note": "(stereo partly drawn) [DAPT]", "values": [
      {"measurement": "multiciliated cell formation by apical versus basal application", "setting": "listed as DAFT", "result": "induces ciliated cell formation via both apical and basal application; also recorded: induces multiciliated cell formation via both apical and basal application"},
      {"measurement": "ratio MCC number/total luminal cells", "setting": "I μM DAPT", "result": "significant increases"},
      {"measurement": "number of multiciliated cells, apical only treatment of submerged cultures", "result": "approximately double the number of multiciliated cells"},
      {"measurement": "multiciliated cell numbers, treatment during differentiation", "result": "increased MCC cell numbers; also recorded: increased multiciliated cell numbers"},
      {"measurement": "multiciliated cell numbers, treatment during differentiation", "setting": "listed as DAFT", "result": "significant increase in the proportion of multiciliated cells"},
      {"measurement": "multiciliated cell formation in mature cultures", "result": "induces the formation of additional multiciliated cells in mature cultures"},
      {"measurement": "multiciliated cell formation in mature cultures", "setting": "listed as DAFT", "result": "induces the formation of additional multiciliated cells in mature cultures; also recorded: robust induction of multiciliated cell formation"},
      {"measurement": "multiciliated cell formation, treatment during proliferation only", "result": "had no effect on differentiation; also recorded: no detrimental effect on multiciliated cells or overall epithelial structure"},
      {"measurement": "multiciliated cell formation, treatment during proliferation only", "setting": "listed as DAFT", "result": "not sufficient to induce extra multiciliated cell formation"}
    ]},
    {"smiles": "O=C(O)CC[C@H]1CC[C@@](c2cc(F)ccc2F)(S(=O)(=O)c2ccc(Cl)cc2)CC1", "note": "[MK-0752]", "values": [
      {"measurement": "effect on Notch signaling and differentiation towards MCCs", "result": "effective in blocking Notch signaling, driving differentiation towards MCCs"},
      {"measurement": "toxicity / disruption of epithelial structure at high concentration", "setting": "ALI+0 to +21d", "result": "disrupted epithelial structure"},
      {"measurement": "multiciliated cell formation at the low concentration", "setting": "ALI+0 to +21d", "result": "induced multiciliated cell formation; also recorded: able to induce the formation of extra multiciliated cells"}
    ]},
    {"smiles": "CC(C)[C@H](O)C(=O)N[C@@H](C)C(=O)N[C@@H]1C(=O)N(C)CCc2ccccc21", "note": "[semagacestat, (2S)-2-hydroxy-3-methyl-N-[(1 S)-1-methyl-2-oxo-2-[[(1 S)-2,3,4,5-tetrahydro-3-methyl-2-oxo-1H-3-benzazepin-1-yl]amino]ethyl]-butamide]", "values": [
      {"measurement": "proportion of multiciliated cells", "setting": "10 μM, ALI+0 to +21d", "result": "significant decrease"},
      {"measurement": "proportion of multiciliated cells", "setting": "15.625 to 500 nM, ALI+0 to +21d", "result": "significant increase"},
      {"measurement": "multiciliated cell formation by apical versus basal application", "setting": "listed as LY45139", "result": "induces ciliated cell formation via both apical and basal application"},
      {"measurement": "multiciliated cell formation by apical versus basal application", "setting": "listed as LY450139", "result": "just as efficacious as basal treatment; also recorded: induces multiciliated cell formation via both apical and basal application"},
      {"measurement": "effect on Notch signaling and differentiation towards MCCs", "result": "effective in blocking Notch signaling, driving differentiation towards MCCs"},
      {"measurement": "number of multiciliated cells, apical only treatment of submerged cultures", "result": "approximately double the number of multiciliated cells"},
      {"measurement": "multiciliated cell numbers, treatment during differentiation", "setting": "listed as LY45139", "result": "increased MCC cell numbers"},
      {"measurement": "multiciliated cell numbers, treatment during differentiation", "setting": "listed as LY450139", "result": "significant increase in the proportion of multiciliated cells; also recorded: increased multiciliated cell numbers"},
      {"measurement": "toxicity / disruption of epithelial structure at high concentration", "setting": "ALI+0 to +21d", "result": "Toxicity is observed at micromolar doses"},
      {"measurement": "toxicity / disruption of epithelial structure at high concentration", "setting": "[1]", "result": "disrupted epithelial structure"},
      {"measurement": "toxicity / disruption of epithelial structure at high concentration", "setting": "[2]", "result": "disrupted the epithelial junctions; also recorded: disrupted epithelial structure"},
      {"measurement": "multiciliated cell formation at the low concentration", "setting": "[1]", "result": "induced multiciliated cell formation"},
      {"measurement": "multiciliated cell formation at the low concentration", "setting": "[2]", "result": "able to induce the formation of extra multiciliated cells; also recorded: induced multiciliated cell formation"},
      {"measurement": "dose dependence of multiciliated cell numbers", "setting": "lower (nM) concentrations, ALI+0 to +21d, listed as LY450139", "result": "increases the proportion of multiciliated cells in a dose dependent manner; also recorded: dose dependent increase in multiciliated cell numbers"},
      {"measurement": "multiciliated cell formation in mature cultures", "result": "induces the formation of additional multiciliated cells in mature cultures"},
      {"measurement": "multiciliated cell formation in mature cultures", "setting": "listed as LY450139", "result": "robust induction of multiciliated cell formation; also recorded: able to drive multiciliated cell formation in differentiating as well as mature, homeostatic airway epithelial cultures; also recorded: induces the formation of additional multiciliated cells in mature cultures"},
      {"measurement": "multiciliated cell formation, treatment during proliferation only", "setting": "listed as LY45139", "result": "had no effect on differentiation"},
      {"measurement": "multiciliated cell formation, treatment during proliferation only", "setting": "listed as LY450139", "result": "not sufficient to induce extra multiciliated cell formation; also recorded: no observable effect on subsequent differentiation; also recorded: no detrimental effect on multiciliated cells or overall epithelial structure"},
      {"measurement": "ratio MCC number/total luminal cells", "setting": "semagacestat 500 nM to 31.25 nM", "result": "significant increases"},
      {"measurement": "concentration at which the percentage of MCCs reaches its maximum / begins to plateau", "setting": "[3]", "result": "around 125 nM"},
      {"measurement": "lowest concentration able to effectively increase the proportion of multiciliated cells", "setting": "[3]", "result": 31.25, "unit": "nM"}
    ]}
  ]
}
